Measured values taken from patent US20230066946A1, “1,5-DIPHENYLPYRAZOLYL-3-OXYALKYL ACIDS AND 1-PHENYL-5-THIENYLPYRAZOLYL-3-OXYALKYL ACIDS AND THE USE THEREOF FOR CONTROL OF UNWANTED PLANT GROWTH” (Bayer Aktiengesellschaft, priority 2019, published 2023).

What was measured:
POLCO [1] = test: Pre-emergence herbicidal action against POLCO; format: in vivo, Polygonum convolvulus; settings: 320 g/ha, scored visually after about 3 weeks vs untreated controls
Excerpt: (§1) Seeds of mono- and dicotyledonous weed plants are placed in plastic pots in sandy loam soil (doubly sown with one species each of mono- or dicotyledonous weed plants per pot) and covered with soil. The compounds of the invention, formulated in the form of wettable powders (WP) or as emulsion concentrates (EC), are then applied onto the surface of the covering soil as aqueous suspension or emulsion with addition of 0.5% additive at a water application rate equivalent to 600 litres per hectare. After the treatment, the pots are placed in a greenhouse and kept under good growth conditions for the trial plants. After about 3 weeks, the effect of the preparations is scored visually in comparison with untreated controls as percentages. For example, 100% activity=the plants have died, 0% activity=like control plants. [table] Tables 4.1-4.15 below show the effects of selected compounds of the general formula (I) according to Tables 1 to 3 on various harmful plants at an application rate corresponding to 1280 or 320 g/ha, which have been obtained by the aforementioned experimental method.

ECHCG [2] = test: Pre-emergence herbicidal action against ECHCG; format: in vivo, Echinochloa crus-galli; settings: scored visually after about 3 weeks vs untreated controls, 100% = plants have died, 0% = like control plants
Method in brief: (§2)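 Greenhouse pot test on sown, soil-covered weed seeds; spray of WP or EC formulation at 1280 or 320 g/ha onto covering soil. Effect rated visually after about 3 weeks (0% = like control, 100% = dead).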

SETVI [3] = test: Pre-emergence herbicidal action against SETVI; format: in vivo, Setaria viridis; settings: 1280 g/ha, scored visually after about 3 weeks vs untreated controls
Method in brief: as §2

AMARE [4] = test: Pre-emergence herbicidal action against AMARE; format: in vivo, Amaranthus retroflexus; settings: scored visually after about 3 weeks vs untreated controls; for Pre-emergence action at 320 g/ha against AMARE in %: 100% = plants have died, 0% = like control plants; for Pre-emergence action against AMARE in %: 1280 g/ha
Method in brief: as §2

STEME [5] = test: Pre-emergence herbicidal action against STEME; format: in vivo, Stellaria media; settings: scored visually after about 3 weeks vs untreated controls
Method in brief: as §2

VERPE [6] = test: Pre-emergence herbicidal action against VERPE; format: in vivo, Veronica persica; settings: 320 g/ha, scored visually after about 3 weeks vs untreated controls
Excerpt: as §1

AMARE [7] = test: Post-emergence herbicidal action against AMARE; format: in vivo, Amaranthus retroflexus; settings: visual rating about 3 weeks after treatment
Method in brief: (§3)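 Herbicidal effect, rated visually about 3 weeks after treatment as percent versus untreated controls. Test plants in sandy loam had received a foliar application at the one-leaf stage of 1280 or 320 g/ha, formulated as WP or EC with 0.5% additive in 600 litres per hectare water.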

PHBPU = test: Post-emergence herbicidal action against PHBPU; format: in vivo, Pharbitis purpurea; settings: 320 g/ha, visual rating about 3 weeks after treatment
Method: (§4) [table] Seeds of mono- and dicotyledonous weed plants are placed in plastic pots in sandy loam soil (twin sowing with one species each of mono- or dicotyledonous weed plants per pot), covered with soil and cultivated in a greenhouse under controlled growth conditions. 2 to 3 weeks after sowing, the test plants are treated at the one-leaf stage. The compounds of the invention, formulated in the form of wettable powders (WP) or as emulsion concentrates (EC), are applied to the green parts of the plants as aqueous suspension or emulsion with addition of 0.5% additive at a water application rate equivalent to 600 litres per hectare. After the test plants have been kept in the greenhouse under optimum growth conditions for about 3 weeks, the activity of the preparations is rated visually in comparison to untreated controls. For example, 100% activity=the plants have died, 0% activity=like control plants. Tables 5.1-5.16 below show the effects of selected compounds of the general formula (I) according to Tables 1 to 3 on various harmful plants at an application rate corresponding to 1280 or 320 g/ha, which have been obtained by the aforementioned experimental method.

VIOTR = test: Post-emergence herbicidal action against VIOTR; format: in vivo, Viola tricolor; settings: 320 g/ha, visual rating about 3 weeks after treatment
Method: as §4

VERPE [8] = test: Post-emergence herbicidal action against VERPE; format: in vivo, Veronica persica; settings: 320 g/ha, visual rating about 3 weeks after treatment
Method: as §4

MATIN = test: Post-emergence herbicidal action against MATIN; format: in vivo, Matricaria inodora; settings: visual rating about 3 weeks after treatment
Method in brief: as §3

STEME [9] = test: Post-emergence herbicidal action against STEME; format: in vivo, Stellaria media; settings: visual rating about 3 weeks after treatment
Method in brief: as §3

ECHCG [10] = test: Post-emergence herbicidal action against ECHCG; format: in vivo, Echinochloa crus-galli; settings: 1280 g/ha, post-emergence at one-leaf stage, rated visually after about 3 weeks vs untreated controls
Method: as §4

SETVI [11] = test: Post-emergence herbicidal action against SETVI; format: in vivo, Setaria viridis; settings: 1280 g/ha, post-emergence at one-leaf stage, rated visually after about 3 weeks vs untreated controls
Method in brief: as §3

POLCO [12] = test: Post-emergence herbicidal action against POLCO; format: in vivo, Polygonum convolvulus; settings: 320 g/ha, visual rating about 3 weeks after treatment
Method: as §4

SMILES | Pre-emergence action against POLCO in % (POLCO [1]) | Pre-emergence action at 1280 g/ha against ECHCG in % (ECHCG [2]) | Pre-emergence action against SETVI in % (SETVI [3]) | Pre-emergence action at 320 g/ha against AMARE in % (AMARE [4]) | Pre-emergence action against AMARE in % (AMARE [4]) | Pre-emergence action against STEME in % (STEME [5]; 1280 g/ha) | Pre-emergence action against VERPE in % (VERPE [6]) | Post-emergence action against AMARE in % (AMARE [7]; 320 g/ha) | Post-emergence action against AMARE in % (AMARE [7]; 1280 g/ha) | Post-emergence action against PHBPU in % (PHBPU) | Post-emergence action against VIOTR in % (VIOTR) | Post-emergence action against VERPE in % (VERPE [8]) | Pre-emergence action against STEME in % (STEME [5]; 320 g/ha) | Post-emergence action against MATIN in % (MATIN; 320 g/ha) | Post-emergence action against MATIN in % (MATIN; 1280 g/ha) | Post-emergence action against STEME in % (STEME [9]; 1280 g/ha) | Post-emergence action against ECHCG in % (ECHCG [10]) | Post-emergence action against SETVI in % (SETVI [11]) | Post-emergence action against POLCO in % (POLCO [12]) | Post-emergence action against STEME in % (STEME [9]; 320 g/ha)
COC(=O)COc1nn(-c2ccc(Cl)cc2)c(-c2ccccc2)c1Cl [I-001] | 90% | – | – | – | – | – | – | – | – | – | – | – | – | – | – | – | – | – | – | –
C#CCNC(=O)COc1nn(-c2ccccc2)c(-c2ccc(F)cc2)c1Br [III-006] | 90% | 100% | 100% | 90% | 90% | 100% | 90% | 80% | 100% | 80% | 80% | 80% | – | – | – | – | – | – | – | –
C[Si](C)(C)COC(=O)COc1nn(-c2ccccc2F)c(-c2ccc(F)c(F)c2)c1Br [I-102] | 100% | 100% | 100% | 90% | 100% | 90% | 80% | 80% | 90% | 90% | 90% | 80% | 90% | 80% | 100% | 100% | – | – | – | –
CCOC(=O)COc1nn(-c2ccc(F)cc2F)c(-c2ccc(F)cc2)c1Br [I-081] | 100% | 90% | 100% | 80% | 100% | 100% | 80% | 90% | 100% | 90% | 100% | 80% | 80% | 80% | 100% | 100% | 90% | 90% | 80% | 80%
C=CCNC(=O)COc1nn(-c2ccc(F)cc2)c(-c2cccc(F)c2)c1Br [III-015] | 90% | 100% | 100% | – | 100% | 100% | 90% | 80% | – | 80% | 80% | 90% | – | – | – | – | – | – | 80% | –
COC(=O)COc1nn(-c2ccccc2)c(-c2ccc(F)cc2)c1Br [I-101] | 100% | 100% | 100% | 90% | 90% | 100% | – | 80% | 100% | 90% | 100% | 80% | – | 90% | 90% | – | – | – | – | –
CCOC(=O)COc1nn(-c2ccc(F)cc2F)c(-c2ccccc2)c1Br [I-079] | 80% | 90% | 100% | 80% | 100% | 100% | – | 80% | 100% | 90% | 100% | 80% | – | 80% | 100% | 100% | 100% | 100% | 80% | –
O=C(O)COc1nn(-c2ccccc2F)c(-c2ccccc2)c1Br [I-082] | 80% | – | – | 90% | – | – | 80% | 80% | – | 90% | 100% | 80% | – | 80% | – | – | – | – | – | –
